Paper PMC4452912 (Viruses, 2015)
Where two headings read alike, the source gives them in different places.

Experiments:
[1] = in vitro; format: in vitro ADME; settings: mouse, microsomes
[2] = molecular target: T1, ER α-glucosidase I (Rattus norvegicus, UniProt O88941); assay: Purified enzyme inhibition, ER α-glucosidase I; format: biochemical
T1 sequence (O88941 1-834): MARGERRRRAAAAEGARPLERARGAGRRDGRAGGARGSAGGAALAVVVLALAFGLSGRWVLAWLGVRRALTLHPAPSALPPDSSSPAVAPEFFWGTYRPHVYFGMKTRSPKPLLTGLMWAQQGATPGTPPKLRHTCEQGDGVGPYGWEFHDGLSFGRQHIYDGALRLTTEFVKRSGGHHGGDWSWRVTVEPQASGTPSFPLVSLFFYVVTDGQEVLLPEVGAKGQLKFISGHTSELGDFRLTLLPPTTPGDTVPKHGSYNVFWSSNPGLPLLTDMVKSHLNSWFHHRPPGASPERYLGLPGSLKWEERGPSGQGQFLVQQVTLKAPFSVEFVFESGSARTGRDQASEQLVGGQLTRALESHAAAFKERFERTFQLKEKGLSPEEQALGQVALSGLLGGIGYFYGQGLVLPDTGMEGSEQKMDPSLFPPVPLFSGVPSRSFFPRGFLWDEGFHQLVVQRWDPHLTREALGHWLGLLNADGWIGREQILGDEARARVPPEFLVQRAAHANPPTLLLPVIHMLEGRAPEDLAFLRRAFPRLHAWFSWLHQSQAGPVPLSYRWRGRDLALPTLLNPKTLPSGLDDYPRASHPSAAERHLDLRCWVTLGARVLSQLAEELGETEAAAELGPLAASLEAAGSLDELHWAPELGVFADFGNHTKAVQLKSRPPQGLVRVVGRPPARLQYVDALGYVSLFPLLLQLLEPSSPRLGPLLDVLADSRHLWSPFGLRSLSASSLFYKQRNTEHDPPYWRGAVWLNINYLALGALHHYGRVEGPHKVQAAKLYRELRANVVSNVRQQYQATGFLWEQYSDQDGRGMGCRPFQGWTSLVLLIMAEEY

[3] = in vitro; format: in vitro ADME; settings: mouse, plasma
[4] = molecular target: CYP2D6 (Homo sapiens, UniProt P10635); assay: CYP inhibition in human liver microsomes, CYP2D6; format: in vitro ADME
[5] = molecular target: T2, ER α-glucosidase I (Bos taurus, UniProt A0A3Q1M9D9); format: cell-based
T2 sequence (A0A3Q1M9D9 1-839): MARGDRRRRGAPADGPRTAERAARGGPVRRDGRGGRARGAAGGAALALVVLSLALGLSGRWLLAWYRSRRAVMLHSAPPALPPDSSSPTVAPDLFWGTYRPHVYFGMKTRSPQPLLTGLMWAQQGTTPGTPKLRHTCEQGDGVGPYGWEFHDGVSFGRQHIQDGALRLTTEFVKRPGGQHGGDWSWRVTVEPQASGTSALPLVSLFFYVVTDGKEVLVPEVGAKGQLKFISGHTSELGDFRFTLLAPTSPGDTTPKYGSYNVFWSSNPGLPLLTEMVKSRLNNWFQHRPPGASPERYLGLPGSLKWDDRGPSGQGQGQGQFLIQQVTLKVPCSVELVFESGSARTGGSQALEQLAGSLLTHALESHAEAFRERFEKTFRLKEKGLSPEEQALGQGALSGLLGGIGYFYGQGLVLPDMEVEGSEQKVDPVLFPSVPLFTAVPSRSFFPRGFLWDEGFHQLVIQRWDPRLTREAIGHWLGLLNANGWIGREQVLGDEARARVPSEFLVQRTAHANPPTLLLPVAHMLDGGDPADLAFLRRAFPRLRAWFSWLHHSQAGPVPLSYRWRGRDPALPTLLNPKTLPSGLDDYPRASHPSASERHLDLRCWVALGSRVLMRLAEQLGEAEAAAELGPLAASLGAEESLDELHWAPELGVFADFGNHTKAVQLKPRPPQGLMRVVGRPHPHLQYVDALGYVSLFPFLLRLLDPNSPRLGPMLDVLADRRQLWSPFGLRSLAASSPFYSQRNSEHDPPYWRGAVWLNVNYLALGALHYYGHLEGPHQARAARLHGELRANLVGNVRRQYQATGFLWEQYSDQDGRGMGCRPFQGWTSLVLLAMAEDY

[6] = in vitro; format: in vitro ADME; settings: human, Caco-2
[7] = test system: DENV2 strain S221; format: in vivo, AG129 mice
[8] = in vitro; format: in vitro ADME; settings: rat, microsomes
[9] = molecular target: ER α-glucosidase II (Rattus norvegicus, UniProt A0A8I6GFL3); assay: Purified enzyme inhibition, ER α-glucosidase II; format: biochemical; settings: rat liver enzyme
[10] = test system: circulating cytokines and chemokines; assay: Serum cytokine levels in DENV infected AG129 mice (23-plex); format: in vivo; settings: 100 mg/kg TID
[11] = in vitro; format: cell-based; settings: African green monkey

Chain of ER α-glucosidase II (A0A8I6GFL3 33-944): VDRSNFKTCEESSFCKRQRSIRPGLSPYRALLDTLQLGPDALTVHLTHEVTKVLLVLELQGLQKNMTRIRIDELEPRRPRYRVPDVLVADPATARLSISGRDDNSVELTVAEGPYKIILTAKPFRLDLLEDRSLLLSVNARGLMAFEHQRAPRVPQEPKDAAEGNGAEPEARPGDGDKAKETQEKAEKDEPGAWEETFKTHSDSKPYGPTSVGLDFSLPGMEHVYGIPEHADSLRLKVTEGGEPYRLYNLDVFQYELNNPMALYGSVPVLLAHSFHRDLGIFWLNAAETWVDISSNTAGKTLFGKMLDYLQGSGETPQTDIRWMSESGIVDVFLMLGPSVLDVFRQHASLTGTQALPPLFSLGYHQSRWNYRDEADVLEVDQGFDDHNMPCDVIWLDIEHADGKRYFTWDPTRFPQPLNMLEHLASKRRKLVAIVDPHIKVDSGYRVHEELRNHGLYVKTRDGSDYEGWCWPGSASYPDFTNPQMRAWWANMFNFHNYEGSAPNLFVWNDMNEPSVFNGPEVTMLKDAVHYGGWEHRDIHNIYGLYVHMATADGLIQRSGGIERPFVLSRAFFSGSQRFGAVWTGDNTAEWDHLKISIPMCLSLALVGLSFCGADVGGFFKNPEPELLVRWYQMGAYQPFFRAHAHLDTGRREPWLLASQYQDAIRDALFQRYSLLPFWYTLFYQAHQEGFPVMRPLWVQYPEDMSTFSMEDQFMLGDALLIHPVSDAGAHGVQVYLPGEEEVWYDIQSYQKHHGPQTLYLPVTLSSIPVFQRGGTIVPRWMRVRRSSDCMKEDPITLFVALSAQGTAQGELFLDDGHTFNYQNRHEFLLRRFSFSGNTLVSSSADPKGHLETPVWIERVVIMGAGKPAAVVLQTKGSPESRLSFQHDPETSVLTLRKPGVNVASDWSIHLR
Chain of CYP2D6 (P10635 whole entry): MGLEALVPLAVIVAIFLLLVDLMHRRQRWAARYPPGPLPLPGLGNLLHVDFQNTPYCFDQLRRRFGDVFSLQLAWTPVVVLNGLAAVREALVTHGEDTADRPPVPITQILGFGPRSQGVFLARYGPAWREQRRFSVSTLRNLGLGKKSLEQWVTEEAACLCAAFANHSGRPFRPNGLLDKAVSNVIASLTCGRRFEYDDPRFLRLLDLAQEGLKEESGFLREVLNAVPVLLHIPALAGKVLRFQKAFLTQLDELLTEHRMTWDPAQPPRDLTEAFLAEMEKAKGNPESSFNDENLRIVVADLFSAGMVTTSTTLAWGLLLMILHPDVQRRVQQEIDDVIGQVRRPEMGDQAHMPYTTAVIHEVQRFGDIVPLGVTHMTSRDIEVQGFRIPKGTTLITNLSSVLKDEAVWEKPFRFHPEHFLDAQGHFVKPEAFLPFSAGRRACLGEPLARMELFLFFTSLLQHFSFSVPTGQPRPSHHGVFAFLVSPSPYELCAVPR

## OC[C@@H]1[C@@H](O)[C@H](O)[C@@H](O)CN1CCCCCCCCC1CCCO1 (stereo partly drawn) [UV-12]
[1]
  Liver microsome metabolic stability CLintr: <0.6 mL/min/g liver
  half-life at 0.5 µM: > 30 min
[1]; 0.5 h, 0.5 µM
  parent drug remained after 30 min: 100%
[2]
  IC50: 0.14 ± 0.1 µM
[3]
  fraction unbound at 6 h, 10 μM: 0.36
[4]
  IC50: > 100 µM
[5]
  cellular half-life of UV-12 inhibition (blockage of α-glucosidase I): 307 ± 109 min
[5]; MDBK cells
  reversibility of inhibition in cells: reversible inhibitor
[6]
  efflux ratio at 10 µM: 4
[7]; 20 mg/kg PO TID 7 days from 1 h before challenge
  animals protected (survival): 100%
[7]; 100 mg/kg PO TID 7 days from 1 h before challenge
  animals protected (survival): 100%
[8]
  Liver microsome metabolic stability CLintr: <0.6 mL/min/g liver
  half-life at 0.5 µM: > 30 min
[8]; 0.5 h, 0.5 µM
  parent drug remained after 30 min: 100%
[9]; Glc1 substrate, mean and SD, triplicate, read-out: IC50 α-glc II, Glc1
  IC50: 0.83 ± 0.37 µM
[9]; Glc2 substrate, mean and SD, triplicate, read-out: IC50 α-glc II, Glc2
  IC50: 1.1 ± 0.48 µM
[9]; range over the two activities (Glc2, Glc1), read-out: IC50 for α-glucosidase II
  IC50: 0.83 to 1.1 µM
[10]
  Levels of IL-9 and eotaxin: not different
[10]; 72 h, p = 0.0641
  reduction in MCP-1: not significant
[10]; 72 h only
  KC levels: significantly higher
[10]; only at 72 h
  Levels of IFN-γ: significantly reduced
[10]; only at 96 h
  MIP-1β, RANTES, and IL-10 levels: reduced
[10]; vs vehicle
  overall circulating cytokine levels: dampened
[11]
  CC50 at 5 days: > 500 µM
